Experiments:
CDK2/CycE = target: T1, CDK2/CycE (Homo sapiens, UniProt P24941); assay: CDK2/CycE kinase assay (HTRF); type: biochemical; conditions: 10 μM ATP
T1 construct: GST; purchased ProQinase GmbH, Freiburg; host or cells: baculovirus-infected insect cells (Sf9)
Procedure: The CDK2/CycE inhibitory activity of the substances of this invention was measured in the CDK2/CycE-HTRF assay (HTRF=Homogeneous Time Resolved Fluorescence) described in the following paragraphs.
Recombinant CDK2-GST and CycE-GST fusion proteins purified from baculovirus-infected insect cells (Sf9) were purchased from ProQinase GmbH, Freiburg. The substrate used for the kinase reaction was the biotinylated peptide biotin-Ttds-YISPLKSPYKISEG (C terminus in amide form) which can be purchased for example from JERINI Peptide Technologies (Berlin).
CDK2/CycE was incubated in the presence of various concentrations of test substances in 5 μL of assay buffer [50 mM Tris/HCl pH 8.0, 10 mM MgCl2, 1.0 mM dithiothreitol, 0.1 mM sodium orthovanadate, 10 μM adenosine triphosphate (ATP), 0.75 μM substrate, 0.01% (v/v) Nonidet-P40 (Sigma), 1% (v/v) dimethyl sulphoxide] at 22° C. for 60 min. The concentration of CDK2/CycE was adapted to the particular activity of the enzyme and adjusted so that the assay operated in the linear range. Typical concentrations were in the region of 1 ng/ml. The reaction was stopped by adding 5 μl of a solution of HTRF detection reagents (0.2 μM streptavidin-XLent and 3.4 nM phospho-(Ser) CDKs substrate antibody [product #2324B, Cell Signaling Technology, Danvers, Mass., USA] and 4 nM Prot-A-EuK [protein A labelled with Europium cryptate from C is biointernational, France, product No. 61 PRAKLB]) in aqueous EDTA solution (100 mM EDTA, 800 mM KF, 0.2% (w/v) bovine serum albumin (BSA) in 100 mM HEPES/NaOH pH 7.0).
(§1) The resulting mixture was incubated at 22° C. for 1 h in order to allow formation of a complex of the biotinylated phosphorylated substrate and the detection reagents. The amount of phosphorylated substrate was then estimated by measuring the resonance energy transfer from the Prot-A-EuK to the streptavidin-XLent. For this purpose, the fluorescence emissions at 620 nm and 665 nm after excitation at 350 nm were measured in an HTRF measuring instrument, e.g. a Rubystar (BMG Labtechnologies, Offenburg, Germany) or a Viewlux (Perkin-Elmer). The ratio of the emissions at 665 nm and at 622 nm was taken as a measure of the amount of phosphorylated substrate. The data were normalized (enzymic reaction without inhibitor=0% inhibition, all other assay components but no enzyme=100% inhibition) and IC50 values were calculated with a 4-parameter fit using an inhouse software.

human Aurora-C = target: T2, human Aurora-C (Homo sapiens, UniProt Q9UQB9); assay: Aurora-C kinase assay (HTRF); type: biochemical; conditions: GST-human Aurora-C, 10 μM ATP
T2 construct: GST; made in house; host or cells: transiently transfected HEK293 cells
T2 sequence (Q9UQB9 1-309): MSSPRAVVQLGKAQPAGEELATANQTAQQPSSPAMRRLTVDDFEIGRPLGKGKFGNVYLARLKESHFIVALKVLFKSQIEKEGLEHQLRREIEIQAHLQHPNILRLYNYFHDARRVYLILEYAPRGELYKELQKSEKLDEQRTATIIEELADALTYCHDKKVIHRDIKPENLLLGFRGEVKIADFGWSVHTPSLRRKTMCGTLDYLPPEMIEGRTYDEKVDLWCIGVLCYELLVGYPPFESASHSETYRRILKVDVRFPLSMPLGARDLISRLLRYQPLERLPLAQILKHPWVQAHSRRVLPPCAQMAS
Procedure: The Aurora-C inhibitory activity of the substances of this invention was measured in the Aurora-C-HTRF assay (HTRF=Homogeneous Time Resolved Fluorescence) described in the following paragraphs.
Recombinant fusion protein of GST and human Aurora-C was expressed in transiently transfected HEK293 cells and purified by affinity chromatography on glutathione-Sepharose. The substrate used for the kinase reaction was the biotinylated peptide biotin-Ttds-FMRLRRLSTKYRT (C terminus in amide form) which can be purchased for example from JERINI Peptide Technologies (Berlin). Aurora-C was incubated in the presence of various concentrations of test substances in 5 μL of assay buffer [25 mM Hepes/NaOH pH 7.4, 0.5 mM MnCl2, 2.0 mM dithiothreitol, 0.1 mM sodium orthovanadate, 10 μM adenosine triphosphate (ATP), […] substrate, 0.01% (v/v) TritonX-100 (Sigma), 0.05% (w/v) bovine serum albumin (BSA), 1% (v/v) dimethyl sulphoxide] at 22° C. for 60 min. The concentration of Aurora-C was adapted to the particular activity of the enzyme and adjusted so that the assay operated in the linear range. Typical concentrations were in the region of 0.3 nM. The reaction was stopped by adding 5 μl of a solution of HTRF detection reagents (0.2 μM streptavidin-XLent and 1.4 nM anti-phospho-(Ser/Thr)-Akt substrate-Eu-cryptate (C is biointernational, France, product No. 61P02KAE), a Europium-cryptate-labelled phospho-(Ser/Thr)-Akt substrate antibody [product #9611B, Cell Signaling Technology, Danvers, Mass., USA]) in aqueous EDTA solution (40 mM EDTA, 400 mM KF, 0.05% (w/v) bovine serum albumin (BSA) in 25 mM HEPES/NaOH pH 7.0).
as §1, with “anti-phospho-(Ser/Thr)-Akt substrate-Eu cryptate” for “Prot-A-EuK”

KDR kinase = target: T3, KDR kinase (Homo sapiens, UniProt P35968); assay: KDR kinase assay (HTRF); type: biochemical; conditions: KDR kinase-GST, 10 μM ATP
T3 construct: GST; purchased ProQinase GmbH, Freiburg; host or cells: baculovirus-infected insect cells (Sf9)
Procedure: The KDR-inhibitory activity of the substances of this invention was measured in the KDR-HTRF assay (HTRF=Homogeneous Time Resolved Fluorescence) described in the following paragraphs.
Recombinant KDR kinase-GST fusion protein purified from baculovirus-infected insect cells (Sf9) was purchased from ProQinase GmbH, Freiburg. The substrate used for the kinase reaction was the biotinylated peptide biotin-Ahx-DFGLARDMYDKEYYSVG (C terminus in acid form) which can be purchased for example from Biosynthan GmbH (Berlin-Buch, Germany).
KDR kinase was incubated in the presence of various concentrations of test substances in 5 μL of assay buffer [50 mM Hepes/NaOH pH 7.0, 25 mM MgCl2, 5 mM MnCl2, 1.0 mM dithiothreitol, 0.1 mM sodium orthovanadate, 10 μM adenosine triphosphate (ATP), 0.5 μM substrate, 0.001% (v/v) Nonidet-P40 (Sigma), 1% (v/v) dimethyl sulphoxide] at 22° C. for 45 min. The concentration of KDR was adapted to the particular activity of the enzyme and adjusted so that the assay operated in the linear range. The reaction was stopped by adding 5 μl of a solution of HTRF detection reagents (0.1 μM streptavidin-XLent and 2 nM PT66-Eu chelate, a Europium chelate-labelled anti-phospho-tyrosine antibody from Perkin Elmer) in aqueous EDTA solution (125 mM EDTA, 0.2% (w/v) bovine serum albumin (BSA) in 50 mM HEPES/NaOH pH 7.0).
as §1, with “of” for “of a complex of”, “streptavidin-XLent and PT66-Eu chelate.” for “detection reagents.”, “PT66-Eu chelate” for “Prot-A-EuK”

CDK1/CycB = target: T4, CDK1/CycB (Homo sapiens, UniProt P06493); assay: CDK1/CycB kinase assay; type: biochemical; conditions: 0.5 μM ATP, histone IIIS, 33P filter assay
T4 construct: GST; purchased ProQinase GmbH, Freiburg; host or cells: baculovirus-infected insect cells (Sf9)
Procedure: Recombinant CDK1- and CycB-GST fusion proteins, purified from baculovirus-infected insect cells (Sf9), were purchased from ProQinase GmbH, Freiburg. The histone IIIS used as kinase substrate can be purchased from Sigma.
CDK1/CycB (5 ng/μL) was incubated in the presence of various concentrations of test substances (0 μM, and within the range 0.01-100 μM) in 40 μL of assay buffer [50 mM Tris/HCl pH 8.0, 10 mM MgCl2, 0.1 mM Na ortho-vanadate, 1.0 mM dithiothreitol, 0.025% PEG 20000, 0.5 μM ATP, 10 μM histone IIIIS, 0.2 μCi/measurement point ^33P-gamma ATP, 0.05% NP40, 1.25% dimethyl sulphoxide] at 22° C. for 10 min. The reaction was stopped by adding EDTA solution (250 mM, pH 8.0, 15 μl/measurement point).
15 μl of each reaction mixture were loaded onto P30 filter strips (from Wallac), and non-incorporated ^33P-ATP was removed by washing the filter strips three times in 0.5% strength phosphoric acid for 10 min each time. After the filter strips had been dried at 70° C. for 1 hour, the filter strips were covered with scintillator strips (MeltiLex™ A, from Wallac) and baked at 90° C. for 1 hour. The amount of incorporated ^33P (substrate phosphorylation) was determined by scintillation measurement in a gamma radiation counter (Wallac).
The measured data were normalized to 0% inhibition (enzyme reaction without inhibitor) and 100% inhibition (all assay components except enzyme). The IC50 values were determined by means of a 4-parameter fit using the company's own software.

[1] = test system: human MCF7 breast tumour cells; assay: MCF7 proliferation assay; type: cell-based; conditions: 96 h, 4 days incubation, crystal violet staining
Procedure: Cultivated human MCF7 breast tumour cells (ATCC HTB-22) were plated out in a density of 5000 cells/measurement point in 200 μl of growth medium (RPMI1640, 10% foetal calf serum, 2 mU/mL insulin, 0.1 nM oestradiol) in a 96-well multititre plate. After 24 hours, the cells from a plate (zero plate) were stained with crystal violet (see below), while the medium in the other plates was replaced by fresh culture medium (200 μl) to which the test substances had been added in various concentrations (0 μM, and in the range 0.01-30 μM; the final concentration of the solvent dimethyl sulphoxide was 0.5%). The cells were incubated in the presence of the test substances for 4 days. The cell proliferation was determined by staining the cells with crystal violet: the cells were fixed by adding 20 μl/measurement point of an 11% strength glutaraldehyde solution at room temperature for 15 min. After the fixed cells had been washed three times with water, the plates were dried at room temperature. The cells were stained by adding 100 μl/measurement point of a 0.1% strength crystal violet solution (pH adjusted to pH 3 by adding acetic acid). After the stained cells had been washed three times with water, the plates were dried at room temperature. The dye was dissolved by adding 100 μl/measurement point of a 10% strength acetic acid solution, and the extinction was determined by photometry at a wavelength of 595 nm. The percentage change in cell growth was calculated by normalizing the measurements to the extinctions of the zero point plate (=0%) and the extinction of the untreated (0 μM) cells (=100%). The IC50 values were determined by means of a 4-parameter fit using the company's own software.

T3 sequence (P35968 807-1356 limits assumed): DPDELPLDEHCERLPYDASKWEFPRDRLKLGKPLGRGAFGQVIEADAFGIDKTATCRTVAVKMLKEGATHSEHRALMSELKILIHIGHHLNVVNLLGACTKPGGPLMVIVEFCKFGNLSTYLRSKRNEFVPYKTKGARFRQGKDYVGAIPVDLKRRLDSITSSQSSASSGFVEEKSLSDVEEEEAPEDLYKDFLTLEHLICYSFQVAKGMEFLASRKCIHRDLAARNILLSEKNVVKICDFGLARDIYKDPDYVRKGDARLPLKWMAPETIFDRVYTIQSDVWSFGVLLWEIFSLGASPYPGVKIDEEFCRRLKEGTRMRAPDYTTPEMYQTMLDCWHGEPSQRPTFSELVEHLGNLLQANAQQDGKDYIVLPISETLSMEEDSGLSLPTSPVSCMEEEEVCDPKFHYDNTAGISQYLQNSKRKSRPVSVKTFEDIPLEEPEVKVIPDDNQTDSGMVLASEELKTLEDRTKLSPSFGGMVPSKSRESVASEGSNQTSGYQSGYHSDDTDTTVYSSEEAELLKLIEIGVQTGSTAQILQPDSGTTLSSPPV
T4 sequence (P06493 whole entry): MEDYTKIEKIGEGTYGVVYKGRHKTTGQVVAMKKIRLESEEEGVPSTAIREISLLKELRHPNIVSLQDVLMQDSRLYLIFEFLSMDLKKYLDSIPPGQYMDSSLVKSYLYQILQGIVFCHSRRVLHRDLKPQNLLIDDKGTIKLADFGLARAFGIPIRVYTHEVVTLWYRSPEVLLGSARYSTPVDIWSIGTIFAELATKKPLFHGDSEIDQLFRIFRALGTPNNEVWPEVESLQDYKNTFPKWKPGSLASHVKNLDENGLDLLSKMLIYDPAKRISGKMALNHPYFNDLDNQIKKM
T4 sequence (P14635 whole entry partner): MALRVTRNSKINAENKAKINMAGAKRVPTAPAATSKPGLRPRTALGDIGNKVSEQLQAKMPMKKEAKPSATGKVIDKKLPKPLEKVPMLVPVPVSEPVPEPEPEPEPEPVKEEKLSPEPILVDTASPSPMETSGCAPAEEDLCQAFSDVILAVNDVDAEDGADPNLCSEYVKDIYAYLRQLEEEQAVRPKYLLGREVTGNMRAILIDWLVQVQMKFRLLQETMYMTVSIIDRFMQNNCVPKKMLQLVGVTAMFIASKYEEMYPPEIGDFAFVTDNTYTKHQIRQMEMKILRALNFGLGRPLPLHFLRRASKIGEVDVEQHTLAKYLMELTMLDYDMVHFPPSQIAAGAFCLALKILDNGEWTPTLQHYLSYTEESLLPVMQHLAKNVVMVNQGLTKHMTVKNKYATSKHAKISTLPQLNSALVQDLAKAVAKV

SMILES | IC50 (CDK2/CycE) [nM] | IC50 (human Aurora-C) [nM] | IC50 (KDR kinase) [nM] | IC50 (CDK1/CycB) [nM] | IC50 [1] [nM]
Brc1cnc(Nc2cccc(Nc3ncc(Br)c(NCCc4c[nH]cn4)n3)c2)nc1NCCc1c[nH]cn1 [Example 28] | 670 | 120 | 23 | – | –
Cc1cc(C)nc(Sc2ccc(Nc3ncc(Br)c(O[C@H](C)[C@@H](C)O)n3)cc2)n1 [Example 41] | 60 | – | 1400 | 98 | 800

Source: patent publication US20080176866A1, “NOVEL HETARYL-PHENYLENEDIAMINE-PYRIMIDINES AS PROTEIN KINASE INHIBITORS” (priority 2006, published 2008)
